Test results published in patent US20160159861A1, “APJ Receptor Compounds” (priority 2013, published 2016).
Where two headings read alike, the source gives them in different places. Peptide text beside a SMILES is read from it.

Key:
[1] = target: T1, human APJ receptor (hAPJ) (Homo sapiens, UniProt P35414); assay: HTRF cAMP assay: inhibition of NKH477-stimulated cAMP in HEK cells stably expressing hAPJ; assay type: cell-based; details: for Emax: HEK293, read-out: % IA, bound stated; for % IA (cAMP inhibition, hAPJ HEK): intrinsic activity; for Ranking: composite class of EC50 (hAPJ), % IA and % histamine or formal (+) charge; for inhibition of NKH477-stimulated increase in cAMP, dose dependent: concentration response curves, FIGS. 1 and 2, HEK cells stably expressing APJ
T1 construct: expressed in transfected cells
T1 sequence (P35414 1-380): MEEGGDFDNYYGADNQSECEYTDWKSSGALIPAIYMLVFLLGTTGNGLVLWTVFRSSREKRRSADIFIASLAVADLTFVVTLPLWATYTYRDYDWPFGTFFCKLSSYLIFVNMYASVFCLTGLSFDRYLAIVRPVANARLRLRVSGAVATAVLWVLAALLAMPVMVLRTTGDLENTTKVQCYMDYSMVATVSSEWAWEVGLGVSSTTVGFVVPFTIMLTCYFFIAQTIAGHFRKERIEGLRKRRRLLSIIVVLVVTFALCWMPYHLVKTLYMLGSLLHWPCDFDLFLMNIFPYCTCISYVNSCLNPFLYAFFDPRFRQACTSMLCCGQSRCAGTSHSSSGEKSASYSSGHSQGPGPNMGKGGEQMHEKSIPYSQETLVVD
Description: HTRF cAMP Assay and IP-One Assay (Cisbio)
HTRF (homogeneous time resolved fluorescence) is a technology developed by Cisbio Bioassays based on TR-FRET (time-resolved fluorescence resonance energy transfer). Cisbio Bioassays has developed a wide selection of HTRF-based assays compatible with whole cells, thereby enabling functional assays to run under more physiological conditions. The IP-One assays are competitive immunoassays using cryptate-labeled anti-IP1 monoclonal antibody and d2-labeled IP1. IP1 is a relatively stable downstream metabolite of IP3, and accumulates in cells following Gq receptor activation.
cAMP kits based on a competitive immunoassay using cryptate-labeled anti-cAMP antibody and d2-labeled cAMP were used to assay the effects of APJ compounds of the present invention. […] Cells are treated with 1 nG/mL doxycycline and seeded in all white 96 well plates @40 k/well overnight.

rat peritoneal cells = assay: Ex vivo histamine release assay in rat peritoneal cells (vs. Compound 48/80); assay type: cell-based
Description: More desirable pharmacological tolerability can include a decrease in an undesirable side effect (e.g., histamine release, an indicator of mast cell degranulation) without a significant loss in activity of the compound.
Screening of the variant G protein receptor compounds against a control compound for histamine release can be done following standard assays. The standard assay can include comparison to a control compound known to elicit a histamine response (e.g., 48/80 having CAS No. 94724-12-6). Such an assay using rat peritoneal cells is described herein for the APJ compounds.
Test compounds were assayed in the ex vivo histamine release assay using a 3-point dose response. Concentrations of total histamine contained in the cells is used to correct for variability in the numbers of mast cells in the lavage per well.
Resident peritoneal cells were harvested from naïve Sprague Dawley rats (male 200-300 gr, Charles River). Rats were euthanized by CO2 asphyxiation and a skin incision was made along the middle-line of the abdomen. Thirty milliliters of HBSS (HyClone, cat#SH 30268.01) containing 20 mM HEPES and 0.2% BSA (heretofore Assay Buffer) were injected intraperitoneally using a 30 mL syringe with the attached 18 gauge needle. The abdomen was gently lavaged for 1-2 min and 7-10 milliliters of the peritoneal lavage were carefully aspirated. Cell count in the peritoneal lavage was determined using Cellometer Auto T4 (Nexcelom Bioscience). The peritoneal cell count was adjusted to […] cells/mL in Assay Buffer. Rat peritoneal cells were kept at room temperature before and during the assay.
For the 10-point assay, 3-fold serial dilutions were prepared for each test compound in 100% DMSO in 96-well plates (Greiner Bio One, Ref#651261)—from 100 μM down to […]. For the 3-point assay, 10-fold serial dilutions were prepared in 100% DMSO at 100 μM, 10 μM and 1 μM concentrations. From this plate, 5 μL of compound were transferred to a new plate containing 45 μL Assay Buffer to generate a compound plate with 10× final concentrations in 10% DMSO with Assay Buffer. In the final plates, column 11 contained 1% DMSO for the low-histamine-releasing control.
Suspensions of the rat peritoneal cells (90 μL of 2.75×10^5 cells/mL; →25,000 cells per well) were introduced into each well of a new 96-well microtiter plate (Greiner Bio One, Ref#651261) and 10 μL aliquots of the serially diluted compounds were transferred to the cells in each well. The microtiter plate was incubated for 30 min at room temperature. Following incubation cells were spun down (500 rpm, 7 min) and supernatants were collected for further analysis. Supernatants were diluted 6 times with the assay buffer (15 μL to 75 μL, for 90 μL total) and released histamine content was determined using HTRF® Histamine assay kit (CisBio, cat#62HTMPEB). To measure the total histamine in each well, cells were lysed by addition of 15 μL 5% TritonX-100 to each well followed by incubation for 15 minutes. The plates were then spun at 3000 rpm for 5 minutes, and 10 μL of supernatant were diluted 9-fold in assay buffer (10 μL to 80 μL for 90 μL total) to make the “total” histamine plate. Histamine content was measured as described above for the “released” histamine values.
The standard positive control was Compound 48/80 (Enzo Life Sciences), a oligomeric polymer mixture produced by the condensation of N-methyl-p-methoxyphenethylamine with formaldehyde. The trimer is the most abundant in the mixture Compound 48/80 is used to promote mast cell degranulation and activates G proteins by a mechanism analogous to that of mastoparan. […] See references: T. Higashijima et al., J. Biol., Chem., 265 14176 (1990); M. Mousli et al., FEBS Lett., 259 260 (1990); K. Gietzen et al., Biochim. Biophys. Acta, 736 109 (1983); K. Gietzen, Biochem. J., 1983 216 611 and C. Bronner et al., Biochim. Biophys. Acta, 920 301(1987).

[2] = HTRF cAMP Assay, per data of Table 6
[3] = HTRF cAMP Assay, per data of Table 6, read-out: EC50 (hAPJ), inhibition of cAMP production, bound stated
[4] = Table 6, hAPJ HEK cells, NKH477-stimulated cAMP, read-out: EC50 (cAMP inhibition, hAPJ HEK)

Compound	Emax [1, 2] [%]	EC50 [1, 3] [nM]	EC50 [1, 4] [nM]	% IA (cAMP inhibition, hAPJ HEK) ([1]; Table 6, hAPJ HEK cells) [%]	Ranking [1]	inhibition of NKH477-stimulated increase in cAMP, dose dependent [1]	Histamine (% vs. 48/80) (rat peritoneal cells) [%]	EC50 ([1]; EC50 (cAMP inhibition, hAPJ HEK), Table 6, hAPJ HEK cells, NKH477-stimulated cAMP) [nM]	Histamine (% vs. 48/80) (rat peritoneal cells; histamine release from rat peritoneal cells relative to Compound 48/80) [%]
CCCCCCCCCCCCCCCC(=O)N[C@H](C(=O)N[C@H](C(=O)N[C@@H](Cc1ccccc1)C(=O)N[C@@H](CCCNC(=N)N)C(=O)N[C@@H](CO)C(=O)N[C@@H](CO)C(=O)N[C@@H](CCC(=O)O)C(=O)N[C@H](CCCCN)C(=O)N[C@@H](CCCNC(=N)N)C(=O)N[C@@H](CCCNC(=N)N)C(=O)N1CCC[C@H]1C(=O)N[C@@H](CO)C(=O)N[C@@H](C)C(=O)N[C@@H](CC(=O)O)C(=O)N[C@H](C(=O)N[C@@H](Cc1ccccc1)C(=O)N1CCC[C@H]1C(N)=O)[C@@H](C)CC)C(C)C)[C@@H](C)O [Compound 24] (HELM PEPTIDE1{[CCCCCCCCCCCCCCCC(=O)[*:2]].T.V.F.R.S.S.E.[dK].R.R.P.S.A.D.I.F.P.[am]}$$$$V2.0)	≥ 80	≤ 25	13	88	**** (EC50≦25 nM (hAPJ), % IA≧80% and either % histamine>35% or formal (+) charge>1)	inhibited	54		
CCCCCCCCCCCCCCCC(=O)N[C@H](C(=O)N[C@H](C(=O)N[C@@H](Cc1ccccc1)C(=O)N[C@@H](CCC(N)=O)C(=O)N[C@@H](CO)C(=O)N[C@@H](CCC(=O)O)C(=O)N[C@H](CCCCN)C(=O)N[C@@H](CCCNC(=N)N)C(=O)N[C@@H](CCCNC(=N)N)C(=O)N[C@@H](CO)C(=O)N[C@@H](C)C(=O)N[C@@H](CC(=O)O)C(=O)N[C@@H](Cc1ccccc1)C(=O)N[C@H](C(N)=O)[C@@H](C)CC)C(C)C)[C@@H](C)O [Compound 16, TVFQSEkRRSADFI] (HELM PEPTIDE1{[CCCCCCCCCCCCCCCC(=O)[*:2]].T.V.F.Q.S.E.[dK].R.R.S.A.D.F.I.[am]}$$$$V2.0)	50 to 79	25 to 50	10	78	*** (EC50 25-50 nM (hAPJ), % IA 50-79% and either % histamine≦35% or formal (+) charge≦1)		21		
CCCCCCCCCCCCCCCC(=O)N1CCC[C@H]1C(=O)N[C@@H](CCC(=O)O)C(=O)N[C@H](CCCCN)C(=O)N[C@@H](CCCNC(=N)N)C(=O)N[C@@H](CCCNC(=N)N)C(=O)N[C@@H](CO)C(=O)N[C@@H](C)C(=O)N[C@@H](CC(=O)O)C(=O)N[C@H](C(=O)N[C@@H](Cc1ccccc1)C(=O)N1CCC[C@H]1C(N)=O)[C@@H](C)CC [Compound 4] (HELM PEPTIDE1{[CCCCCCCCCCCCCCCC(=O)[*:2]].P.E.[dK].R.R.S.A.D.I.F.P.[am]}$$$$V2.0)			9	48	* (EC50≦50 nM (hAPJ), % IA<50%)		-1		
CCCCCCCCCCCCCCCC(=O)N1CCC[C@@H]1C(=O)N[C@H](C(=O)N[C@H](C(=O)N[C@@H](Cc1ccccc1)C(=O)N[C@@H](CCCNC(=N)N)C(=O)N[C@@H](CO)C(=O)N1CCC[C@@H]1C(=O)N[C@@H](CO)C(=O)N[C@@H](CCC(=O)O)C(=O)N[C@H](CCCCN)C(=O)N[C@@H](CCCNC(=N)N)C(=O)N[C@@H](CCCNC(=N)N)C(=O)N[C@@H](CO)C(=O)N[C@@H](C)C(=O)N[C@@H](CC(=O)O)C(=O)N[C@H](C(=O)N[C@@H](Cc1ccccc1)C(N)=O)[C@@H](C)CC)C(C)C)[C@@H](C)O [Compound 29, pTVFRSpSEkRRSADIF] (HELM PEPTIDE1{[CCCCCCCCCCCCCCCC(=O)[*:2]].[dP].T.V.F.R.S.[dP].S.E.[dK].R.R.S.A.D.I.F.[am]}$$$$V2.0)	≥ 80	≤ 25	20	80	**** (EC50≦25 nM (hAPJ), % IA≧80% and either % histamine>35% or formal (+) charge>1)	inhibited	47		
CCCCCCCCCCCCCCCC(=O)N[C@H](C(=O)N[C@H](C(=O)N[C@@H](Cc1ccccc1)C(=O)N[C@@H](CCCNC(=N)N)C(=O)N[C@@H](CO)C(=O)N[C@@H](CO)C(=O)N[C@@H](CCC(=O)O)C(=O)N[C@H](CCCCN)C(=O)N[C@@H](CCCNC(=N)N)C(=O)N[C@@H](CCCNC(=N)N)C(=O)N[C@@H](CO)C(=O)N[C@@H](C)C(=O)N[C@@H](CC(=O)O)C(=O)N[C@@H](Cc1ccc(-c2ccccc2)cc1)C(=O)N[C@@H](Cc1ccccc1)C(=O)N[C@H](C(N)=O)[C@@H](C)CC)C(C)C)[C@@H](C)O [Compound 11, TVFRSSEkRRSAD(Bip)FI] (HELM PEPTIDE1{[CCCCCCCCCCCCCCCC(=O)[*:2]].T.V.F.R.S.S.E.[dK].R.R.S.A.D.[O=C([C@H](Cc1ccc(-c2ccccc2)cc1)N[*:1])[*:2]].F.I.[am]}$$$$V2.0)			34	76	** (EC50 25-50 nM (hAPJ), % IA 50-79% and either % histamine>35% or formal (+) charge>1)		8		
CCCCCCCCCCCCCCCC(=O)N[C@H](C(=O)N[C@H](C(=O)N[C@@H](Cc1ccccc1)C(=O)N[C@@H](CCCNC(=N)N)C(=O)N[C@@H](CO)C(=O)N[C@@H](CO)C(=O)N[C@@H](CCC(=O)O)C(=O)N[C@H](C)C(=O)N[C@@H](CCCNC(=N)N)C(=O)N[C@@H](CCCNC(=N)N)C(=O)N[C@@H](CO)C(=O)N[C@@H](C)C(=O)N[C@@H](CC(=O)O)C(=O)N[C@H](C(=O)N[C@@H](Cc1ccccc1)C(=O)N[C@H](C(N)=O)[C@@H](C)CC)[C@@H](C)CC)C(C)C)[C@@H](C)O [Compound 10] (HELM PEPTIDE1{[CCCCCCCCCCCCCCCC(=O)[*:2]].T.V.F.R.S.S.E.[dA].R.R.S.A.D.I.F.I.[am]}$$$$V2.0)				106	** (EC50 25-50 nM (hAPJ), % IA 50-79% and either % histamine>35% or formal (+) charge>1)			39	3
